From patent US20030054389A1, “Methods for identifying agents that induce a cellular phenotype, and compositions thereof” (priority 2001, published 2003)

How the values were obtained:
HS294T cells = assay: Nuclear condensation / ethidium homodimer and Syto16 staining, HS294T; format: cell-based
Experimental: (§1) Two cell lines, WM35 and HS294T, were plated out (50,000 cells per well, 24 well plate) and allowed to adhere. After 24 hours, the cells were treated for 4 hours with varying concentrations (5-80 μM) of Cisplatin (cis-platinum (II) diammine dichloride), a well-known chemotherapeutic agent that induces apoptosis. […] Adherent cell populations were then lifted from the solid support by trypsinization, centrifuged (400× g), and resuspended in PBS (0.125 ml). To observe the nuclear morphology and percent cell death in the WM35 and HS294T cell lines, cells from both floater and adherent populations were stained concurrently with Syto16 and ethidium homodimer (125 ul of cell suspension+2.5 ul 62.5uM Sytol6+[…] 10 ug/ml ethidium homodimer, 10 minutes at 37° C.). Ethidium homodimer is a membrane impermeant compound that fluoresces in the 617 nm range when it is intercalated with chromosomal DNA. Thus, in a mixed cell population containing both living and dead/dying cells, only those cells whose membranes have been compromised will stain with ethidium homodimer. In contrast, Syto 16 (Molecular Probes) is a membrane permeant dye that fluoresces in the 518 nm range when associated with chromosomal DNA. Together, these two dyes can be used to observe and distinguish the nuclear morphology in a population containing both living and dead/dying cells.

WM35 cells = assay: Nuclear condensation / ethidium homodimer and Syto16 staining, WM35; format: cell-based
Experimental: as §1

WM35 (melanoma) cells = assay: Caspase-3 fluorescent substrate (Rhodamine 123-YVAD) and PI staining of WM35 floaters; format: cell-based; conditions: Cisplatin 15 μg/ml, floaters collected 18-24 hours after induction
Experimental: WM35 cells were passed one day prior to induction of apoptosis and incubated for 24 hrs to allow the cells to attach to the substrate. The media was subsequently removed, the remaining adherent cells washed 1× with PBS, and subsequently exposed to Cisplatin (15 μg/ml) in fresh media. Eighteen to twenty-four hours after the induction of apoptosis, the floater cell population was collected, pelleted by centrifugation (400× g), and resuspended at 3×10^6 cells/ml in PBS. Samples were then split into four groups: (I) uninduced minus Rhodamine 123-YVAD (substrate), (2) uninduced plus substrate, (3) induced minus substrate, and (4) induced plus substrate. For samples exposed to Rhodamine 123-YVAD substrate, 50 ul of a pre-warmed (37° C.) cell suspension was combined with 25 ul of a stock substrate solution (Celiprobe). Samples were incubated for 60 minutes at 37° C. and then placed on ice prior to FACS analysis. In addition to caspase-3 staining, a replicate of each sample was stained with propidium iodide to determine the percentage of cells within the population whose membranes had been compromised and the overlap between PI and caspase-3 staining. […] Emission spectra were read at 515-535 nm wavelength using the FLI (PMT2) 525 nm blue filter.

T47D cells = assay: Camptothecin kill curve in T47D cells; format: cell-based
Experimental: Approximately 250,000 cells were seeded into each well of a six well plate. Cells were then grown in media containing camptothecin of varying concentrations (0-10 uM). After 5 days, the number of cells remaining in each of the camptothecin-treated wells was compared with untreated controls. From these experiments, it was determined that camptothecin concentrations ranging from 1-4 nM had no effect on T47D cell number over the course of the 5 days of treatment. […] In order to determine whether this level of treatment is concomitantly increasing the number of floaters in the population, several flasks are seeded with T47D cells and then treated with 1-4 nM concentrations of camptothecin. After a period of three to five days, the media is collected and the number of floater cells are counted and compared to the total number of cells in the flask (floaters+adherents).

[1] = test system: ECR293 cells containing pBIGFII and ecdysone receptor (pVgRXR); assay: Ecdysone-inducible pBIGFII vector fluorescence in ECR293 cells; format: cell-based; conditions: 5 μM ponesterone A
Text: As an alternative to the constitutive pCLMFG vector, an inducible construct that can be regulated by ecdysone was constructed as follows. The PmlI/XhoI fragment from pVT324 was inserted into the MCS of the PIND vector (Invitrogen). This product was then digested with BglII, blunt-ended and inserted into a pBabe-K-ras vector (pVT313-based) that had been digested with BamHI/XhoI and blunted (Klenow Fragment). The resulting vector was designated pBabe-Forward-1. The XbaI fragment of pVT324 was then inserted into the compatible site of pBabe-Forward-1. The resulting vector was designated pBIGFII. Vector pBIGFII was subsequently transfected into cells (ECR293, Invitrogen) that contain an endogenous copy of the ecdysone receptor (pVgRXR).

HuVEC 9F0293 cells = assay: Time course of detachment and PI staining of HuVEC 9F0293; format: cell-based, Human; conditions: puromycin 2 ug/ml
Experimental: To determine the time course in which dead and/or dying HuVECs detach from the solid support in response to a cytotoxic agent, 9F0293 cells were plated and subsequently treated with puromycin (2 ug/ml). Both floater and adherent cell populations were then collected at varying times (t=4, 7, 9, 16, 20, and 24 hours) and analyzed to determine (a) the percent PI^+ cells in the floater population and (b) the fraction of cells which became floaters. […] The fraction of floaters that stained with PI (PI^+ population) increased with time.

HT29 cells = assay: Induction of apoptosis in HT29 cells carrying pVT324; format: cell-based, human; conditions: after 48 hours of treatment
Experimental: Cells that are positive for PI uptake may either be necrotic, or be in the late stages of apoptosis. In order to address specifically the question of whether DNA recovered from cells undergoing apoptosis can serve as a good template for PCR, the following experiment was performed. HT29 cells containing a retroviral construct that constitutively expresses GFP (pVT324) were treated with sulindac sulfide to induce apoptosis. […] Apoptotic cells were counted into PCR tubes and PCR was carried out using primers specific for the amplification of the retroviral GFP construct. Live cells from an untreated culture were used as PCR controls. There was no apparent difference in amplification of the GFP product from apoptotic cells when compared to live cells (FIG. 11). Thus DNA recovered from cells undergoing either necrotic or apoptotic cell death can serve as an effective template for PCR amplification and construction of sublibraries.

HMEC 96A cells = assay: Floater assay with propidium iodide viability, HMEC 96A; format: cell-based, human; conditions: for Propidium Iodide Staining / Percent Floaters: HMEC 96A
Experimental: (§2) A floater assay involving primary human mammary cells (HMECs), immortalized and transformed with a minimum number of genetic elements, was performed as follows. Primary pooled HMECs (Biowhittaker/Clonetics) were immortalized and transformed with two methods: 1) Serial introduction and expression of retroviral constructs encoding SV-40 Lg T Ag, human telomerase catalytic subunit hTERT, and activated V12H-ras (method of Hahn, et al, Nature 400: 464-468, 1999) and 2) serial introduction and expression of constructs encoding HPV-16 E6/E7, hTERT and V12H-ras. The lines are designated 96C and 96A, respectively. The retroviral constructs BABE/neomycin/SV-40 Lg T Ag BABE/LNCX/puromycin/hTERT, LXSN/hygromycin/V-12H-Ras and LXSN/neomycin/HPV-16 E6/E7 were utilized.
(§3) To determine background floater rates, cells were plated to 20% confluency in three 100 mm dishes (100000 cells/dish) and the number of floaters as a percentage of total cells (adherent+floaters) and the viability of floaters ascertained at two, three and four days post-platin . Viability was assessed by measuring propidium iodide uptake. In addition to untreated controls, a transduction control vector pVT 340 (pCLMFG/GFP) and a positive control BID/MFG vector, a pro-apoptotic protein previously identified in a colorectal carcinoma HT29 negative selection, were utilized. Cells were transduced with 30% (v/v) viral supernatants at 95% and 45% rates, respectively.

HMEC 96C cells = assay: Floater assay with propidium iodide viability, HMEC 96C; format: cell-based, human; conditions: for Propidium Iodide Staining / Percent Floaters: HMEC 96C
Experimental: as §2, §3

N.N.[Cl-].[Cl-].[Pt+2] [Cisplatin, cis-platinum (II) diammine dichloride]
ethidium homodimer staining of adherent cell population (HS294T cells; HS294T adherent cells, Cisplatin experiment): < 10% | cells showing condensed or fragmented nuclei (HS294T cells; HS294T floaters stained with ethidium homodimer, Cisplatin treated): < 20% | floater cells stained with ethidium homodimer (HS294T cells; HS294T floaters, Cisplatin 5-80 μM 4 hours, collected 18-24 hrs later): greater than 50% | ethidium homodimer staining of adherent cell population (WM35 cells; WM35 adherent cells, Cisplatin experiment): < 10% | floater cells stained with ethidium homodimer (WM35 cells; WM35 floaters, Cisplatin treated): 45-50% | condensed or fragmented nuclei (WM35 cells; WM35 floaters, higher concentrations of Cisplatin): 40-50% | caspase-3 positive cells among PI-minus floater cells (WM35 (melanoma) cells): 94.6%

CC[C@@]1(O)C(=O)OCc2c1cc1n(c2=O)Cc2cc3ccccc3nc2-1 [camptothecin]
cell number relative to untreated control (T47D cells; 10 nM camptothecin, 5 days): roughly one third that found in the untreated control | concentration tolerated without adverse effect on cell viability or division (T47D cells; 5 days): up to 4 nM | concentrations at which virtually no cells remained adhered to the plate (T47D cells; 5 days): greater than 50 nM | concentrations resulting in a decrease in cell number relative to untreated control (T47D cells; 5 days): greater than 4 nM | concentrations with no effect on T47D cell number (T47D cells; 5 days of treatment): 1 to 4 nM

CC(C)CC[C@@H](O)[C@](C)(O)[C@H]1CC[C@@]2(O)C3=CC(=O)[C@@H]4C[C@@H](O)[C@@H](O)C[C@]4(C)[C@H]3CC[C@]12C [ponesterone A]
increase of fluorescence level versus absence of inducer [1]: increases by approximately thirty fold

COc1ccc(C[C@H](N)C(=O)N[C@H]2[C@@H](O)[C@H](n3cnc4c(N(C)C)ncnc43)O[C@@H]2CO)cc1 [puromycin]
time course of detachment (HuVEC 9F0293 cells): the majority of HuVECs detached by the 16-hour time point | floater cells in the PI+ gate (HuVEC 9F0293 cells; by 20 hours): nearly all | cells that became floaters (HuVEC 9F0293 cells; within 24 hours): 90-99% | PI− versus PI+ floater cells (HuVEC 9F0293 cells; 4, 7, and 9 hours): near equal numbers

CSc1ccc(/C=C2/C(C)=C(CC(=O)O)c3cc(F)ccc32)cc1 [sulindac sulfide]
cell detachment and apoptotic morphology (HT29 cells): the majority of the cells had detached from the dish and showed typical apoptotic morphology

B1: BID: positive control BID/MFG vector, a pro-apoptotic protein previously identified in a colorectal carcinoma HT29 negative selection (protein, UniProt P55957 1-195, looked up)
BH3-interacting domain death …: MDCEVNNGSSLRDECITNLLVFGFLQSCSDNSFRRELDALGHELPVLAPQWEGYDELQTDGNRSSHSRLGRIEADSESQEDIIRNIARHLAQVGDSMDRSIPPGLVNGLALQLRNTSRSEEDRNRDLATALEQLLQAYPRDMEKEKTMLVLALLLAKKVASHTPSLLRDVFHTTVNFINQNLRTYVRSLARNGMD
modifications: expressed from MFG retroviral vector
notes: positive control BID/MFG vector, a pro-apoptotic protein previously identified in a colorectal carcinoma HT29 negative selection
Propidium Iodide Staining (HMEC 96A cells; Adherent, DAY 3): 1.6% | Propidium Iodide Staining (HMEC 96A cells; Adherent, DAY 4): 0.4% | Percent Floaters (HMEC 96A cells; DAY 2): 54% | Percent Floaters (HMEC 96A cells; DAY 3): 25% | Percent Floaters (HMEC 96A cells; DAY 4): 8% | Propidium Iodide Staining (HMEC 96A cells; Floaters, DAY 3): 72% | Propidium Iodide Staining (HMEC 96A cells; Floaters, DAY 4): 45% | propidium iodide positive in adherents (HMEC 96A cells; line 96A, days 3 and 4): 0.4-1.6% | propidium iodide positive in floaters (HMEC 96A cells; line 96A, days 3 and 4): 45-75% | Propidium Iodide Staining (HMEC 96C cells; Adherent, DAY 3): 8.5% | Propidium Iodide Staining (HMEC 96C cells; Adherent, DAY 4): 0.5% | Percent Floaters (HMEC 96C cells; DAY 2): 46% | Percent Floaters (HMEC 96C cells; DAY 3): 58% | Percent Floaters (HMEC 96C cells; DAY 4): 7% | Propidium Iodide Staining (HMEC 96C cells; Floaters, DAY 3): 81% | Propidium Iodide Staining (HMEC 96C cells; Floaters, DAY 4): 70% | propidium iodide positive (adherents) (HMEC 96C cells; line 96C, days 3 and 4): 0.5-8.5% | propidium iodide positive in floaters (HMEC 96C cells; line 96C, days 3 and 4): 70-81%
